≈ marks a conversion by molar mass, not a printed value. Like-named read-outs stand apart in the source and are kept apart here. Marks after values point to notes of the source that are not given here.
Experiments:
[1] = system: Pseudomonas aeruginosa (P.a.); conditions: for IC50: read-out: IC50, P. a., metals alone; for IC50, 50% inhibition on bacterial proliferation, P. a.: single agent
[2] = system: Streptococcus mutans (S.m., UA159); conditions: for IC50: read-out: IC50, UA159, metals alone; for IC50, 50% inhibition on bacterial proliferation, UA159: single agent
[3] = system: Porphyromonas gingivalis (P.g.); conditions: for IC50: read-out: IC50, P. g., metals alone; for IC50, 50% inhibition on bacterial proliferation, P. g.: single agent
[4] = system: Staphylococcus aureus (S.a); conditions: for IC50: read-out: IC50, S. a., metals alone; for IC50, 50% inhibition on bacterial proliferation, S. a.: single agent
[5] = system: Staphylococcus aureus (S.a); test: microbe, parasite or virus in culture; conditions: read-out: IC50, 50% inhibition on bacterial proliferation, S. a.
[6] = system: Streptococcus mutans (S.m., UA159); test: microbe, parasite or virus in culture; conditions: read-out: IC50, 50% inhibition on bacterial proliferation, UA159
[7] = system: Porphyromonas gingivalis (P.g.); test: microbe, parasite or virus in culture; conditions: read-out: IC50, 50% inhibition on bacterial proliferation, P. g.
[8] = system: Pseudomonas aeruginosa (P.a.); test: microbe, parasite or virus in culture; conditions: read-out: IC50, 50% inhibition on bacterial proliferation, P. a.
[9] = system: Lactobacillus reuteri (L.r.); test: Proliferation of the probiotic Lactobacillus reuteri (OD600); format: cell-based
[10] = 3 to 10 times higher than the listed IC50, Table 1

Row | Compound | IC50 [5] | IC50 [6] | IC50 [7] | IC50 [8] | other results
1 | [Na+].[Na+].[Na+].[O]=[V]([O-])([O-])[O-] [Na3VO4] | – | – | – | – | IC50 [1]: > 2000 µM; IC50 [2]: 866 µM; IC50 [3]: 217 µM; IC50 [4]: > 2000 µM
2 | CN(C)CCCN1c2ccccc2Sc2ccc(Cl)cc21 [Chlorpromazine] | 12 µg/mL (≈ 37.6 µM) | 7 µg/mL (≈ 22 µM) | 5 µg/mL (≈ 15.7 µM) | 149 µg/mL (≈ 467 µM) | Inhibition on proliferation of Lactobacillus reuteri ([9]; 3 to 10 times higher IC50, Table 2): CPZ, Chlorpromazine*
3 | polyarginine | – | – | – | – | IC50, 50% inhibition on bacterial proliferation, P. a. [1]: >100 µg/mL; IC50, 50% inhibition on bacterial proliferation, UA159 [2]: >100 µg/mL; IC50, 50% inhibition on bacterial proliferation, P. g. [3]: 25 µg/mL; IC50, 50% inhibition on bacterial proliferation, S. a. [4]: >100 µg/mL
4 | CO[C@H]1/C=C/O[C@@]2(C)Oc3c(C)c(O)c4c(O)c(c(/C=N/N5CCN(C)CC5)c(O)c4c3C2=O)NC(=O)/C(C)=C\C=C\[C@H](C)[C@H](O)[C@@H](C)[C@@H](O)[C@@H](C)[C@H](OC(C)=O)[C@@H]1C [Rifampin] | 0.013 µg/mL (≈ 0.0158 µM) | 0.013 µg/mL (≈ 0.0158 µM) | 0.45 µg/mL (≈ 0.547 µM) | 26 µg/mL (≈ 31.6 µM) | –
5 | CC(Cc1ccc(O)c(O)c1)C(C)Cc1ccc(O)c(O)c1 (stereo not drawn) [Nordihydro-guaiaretic acid] | 66 µg/mL (≈ 218 µM) | 50 µg/mL (≈ 165 µM) | < 30 µg/mL | > 300 µg/mL | –
6 | Cc1nc(C)c(C)nc1C [Tetramethyl-pyrazine] | > 300 µg/mL | > 300 µg/mL | 37 µg/mL (≈ 272 µM) | > 300 µg/mL | –
7 | O=c1c(O)c(-c2ccc(O)c(O)c2)oc2cc(O)cc(O)c12 [Quercetin] | > 100 µg/mL | 46 µg/mL (≈ 152 µM) | > 100 µg/mL | > 100 µg/mL | –
8 | O[C@H](CS)[C@H](O)CS (racemic) [Dithiothreitol] | > 300 µg/mL | > 300 µg/mL | > 300 µg/mL | > 300 µg/mL | –
9 | Cardiotoxin | – | – | – | – | IC50, 50% inhibition on bacterial proliferation, P. a. [1]: >10 µg/mL; IC50, 50% inhibition on bacterial proliferation, UA159 [2]: >10 µg/mL; IC50, 50% inhibition on bacterial proliferation, P. g. [3]: 11 µg/mL; IC50, 50% inhibition on bacterial proliferation, S. a. [4]: >10 µg/mL
10 | COc1ccc2cc3[n+](cc2c1OC)CCc1cc2c(cc1-3)OCO2 [Berberine] | > 100 µg/mL | 25 µg/mL | > 100 µg/mL | > 100 µg/mL | –
11 | CC(O)(P(=O)(O)O)P(=O)(O)O [Etidronate] | 350 µg/mL (≈ 1700 µM) | 597 µg/mL (≈ 2900 µM) | 46 µg/mL (≈ 223 µM) | > 1000 µg/mL | –
12 | [Cl][Mn][Cl] [MnCl2] | – | – | – | – | IC50 [1]: > 2000 µM; IC50 [2]: 1440 µM; IC50 [3]: 990 µM; Inhibition on proliferation of Lactobacillus reuteri [9, 10]: MnCl2*; IC50 [4]: 2740 µM
13 | COc1cc(/C=C/C(=O)CC(=O)/C=C/c2ccc(O)c(OC)c2)ccc1O [Curcumin] | < 1000 µg/mL | 42 µg/mL (≈ 114 µM) | 126 µg/mL (≈ 342 µM) | 302 µg/mL (≈ 820 µM) | Inhibition on proliferation of Lactobacillus reuteri [9, 10]: C*, Curcumin
14 | NC[C@H]1O[C@H](O[C@H]2[C@H](O)[C@@H](O[C@H]3O[C@H](CO)[C@@H](O)[C@H](N)[C@H]3O)[C@H](N)C[C@@H]2N)[C@H](N)C[C@@H]1O [Tobramycin] | < 3 µg/mL | < 3 µg/mL | 4 µg/mL (≈ 8.56 µM) | 9 µg/mL (≈ 19.3 µM) | –
15 | C[C@@H]1CC[C@@]2(OC1)O[C@H]1[C@@H](O)[C@H]3[C@@H]4CC[C@H]5C[C@@H](O[C@@H]6O[C@H](CO)[C@H](O[C@@H]7O[C@H](CO)[C@@H](O)[C@H](O[C@@H]8OC[C@@H](O)[C@H](O)[C@H]8O)[C@H]7O[C@@H]7O[C@H](CO)[C@H](O)[C@H](O[C@@H]8O[C@H](CO)[C@@H](O)[C@H](O)[C@H]8O)[C@H]7O)[C@H](O)[C@H]6O)[C@H](O)C[C@]5(C)[C@H]4CC[C@]3(C)[C@H]1[C@@H]2C [Digitonin] | > 300 µg/mL | > 300 µg/mL | 123 µg/mL (≈ 100 µM) | > 300 µg/mL | –
16 | Cc1cc(N)c2ccccc2[n+]1CCCCCCCCCC[n+]1c(C)cc(N)c2ccccc21 [Dequalinium] | 2 µg/mL | 1 µg/mL | 3 µg/mL | > 10 µg/mL | –
17 | O=C(O[C@@H]1Cc2c(O)cc(O)cc2O[C@@H]1c1cc(O)c(O)c(O)c1)c1cc(O)c(O)c(O)c1 [EGCG] | – | – | – | – | IC50, 50% inhibition on bacterial proliferation, P. a. [1]: 173 µg/mL (≈ 377 µM); IC50, 50% inhibition on bacterial proliferation, UA159 [2]: 137 µg/mL (≈ 299 µM); IC50, 50% inhibition on bacterial proliferation, P. g. [3]: 83 µg/mL (≈ 181 µM); IC50, 50% inhibition on bacterial proliferation, S. a. [4]: 142 µg/mL (≈ 310 µM)
18 | [Cl][Cu][Cl] [CuCl2] | – | – | – | – | IC50 [1]: 1690 µM; IC50 [2]: 448 µM; IC50 [3]: 673 µM; IC50 [4]: > 2000 µM

Reference: patent US11197904B2, “Pharmaceutical compositions for preventions and managements of dementia, infectious diseases, cancers, periodontitis, dental caries, diabetes, obesity, osteoporosis and chronic pain and methods thereof” (Chung Shan Medical University, priority 2018, dated 2021)
